What was measured:
CYP1A2 = target: T1, CYP1A2 (Homo sapiens, UniProt P05177); assay: in vitro; conditions: microsomes
T1 sequence (P05177 1-516): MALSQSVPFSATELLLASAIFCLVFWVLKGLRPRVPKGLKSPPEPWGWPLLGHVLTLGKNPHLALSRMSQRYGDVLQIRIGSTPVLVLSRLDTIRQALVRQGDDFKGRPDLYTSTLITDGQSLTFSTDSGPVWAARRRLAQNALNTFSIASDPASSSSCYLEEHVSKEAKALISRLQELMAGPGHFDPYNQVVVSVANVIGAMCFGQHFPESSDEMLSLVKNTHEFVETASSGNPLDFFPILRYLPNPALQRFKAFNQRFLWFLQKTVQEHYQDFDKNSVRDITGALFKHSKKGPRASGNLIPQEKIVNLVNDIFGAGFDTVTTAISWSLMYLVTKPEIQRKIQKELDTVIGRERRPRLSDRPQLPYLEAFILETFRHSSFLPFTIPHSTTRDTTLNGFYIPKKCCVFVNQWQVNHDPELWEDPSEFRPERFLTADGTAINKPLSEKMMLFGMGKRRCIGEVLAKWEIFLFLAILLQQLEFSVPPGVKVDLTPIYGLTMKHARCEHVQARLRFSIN
Procedure: (§1) Cytochrome P450 Inhibition Assay
(§2) Analyses were performed using standard LC/MS/MS protocols.

CYP2C9 = CYP2C9 (Homo sapiens, UniProt P11712); assay: in vitro; conditions: microsomes
Chain of CYP2C9 (P11712 whole entry): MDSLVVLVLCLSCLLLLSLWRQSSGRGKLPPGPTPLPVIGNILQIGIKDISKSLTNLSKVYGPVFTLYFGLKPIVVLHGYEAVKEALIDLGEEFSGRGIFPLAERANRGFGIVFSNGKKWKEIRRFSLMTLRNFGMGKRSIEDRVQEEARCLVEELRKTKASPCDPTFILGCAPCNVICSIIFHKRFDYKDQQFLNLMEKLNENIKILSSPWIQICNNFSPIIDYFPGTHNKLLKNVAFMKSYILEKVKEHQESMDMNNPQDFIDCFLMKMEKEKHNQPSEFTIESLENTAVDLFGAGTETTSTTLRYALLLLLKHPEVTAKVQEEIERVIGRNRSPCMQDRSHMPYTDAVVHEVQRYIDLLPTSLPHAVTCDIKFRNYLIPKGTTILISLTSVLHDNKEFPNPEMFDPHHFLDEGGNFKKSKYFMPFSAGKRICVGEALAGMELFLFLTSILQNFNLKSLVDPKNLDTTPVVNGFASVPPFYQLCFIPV
Procedure: as §1, §2

CYP2D6 = CYP2D6 (Homo sapiens, UniProt P10635); assay: in vitro; conditions: microsomes
Chain of CYP2D6 (P10635 whole entry): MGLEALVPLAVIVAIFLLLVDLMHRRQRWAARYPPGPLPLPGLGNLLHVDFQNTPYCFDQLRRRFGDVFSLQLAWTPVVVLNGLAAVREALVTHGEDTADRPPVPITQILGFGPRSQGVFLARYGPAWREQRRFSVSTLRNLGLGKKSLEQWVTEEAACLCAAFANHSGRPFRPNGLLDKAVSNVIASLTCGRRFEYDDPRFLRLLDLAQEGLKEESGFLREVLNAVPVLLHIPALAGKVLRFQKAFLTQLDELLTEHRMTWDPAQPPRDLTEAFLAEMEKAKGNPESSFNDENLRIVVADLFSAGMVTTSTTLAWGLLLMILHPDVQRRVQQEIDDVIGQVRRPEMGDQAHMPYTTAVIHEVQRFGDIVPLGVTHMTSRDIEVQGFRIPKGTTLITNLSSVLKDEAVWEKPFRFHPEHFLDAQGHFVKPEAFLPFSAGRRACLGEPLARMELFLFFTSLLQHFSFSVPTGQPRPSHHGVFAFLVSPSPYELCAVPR
Procedure: as §1, §2

CYP3A4 = CYP3A4 (Homo sapiens, UniProt P08684); assay: in vitro; conditions: microsomes
Chain of CYP3A4 (P08684 whole entry): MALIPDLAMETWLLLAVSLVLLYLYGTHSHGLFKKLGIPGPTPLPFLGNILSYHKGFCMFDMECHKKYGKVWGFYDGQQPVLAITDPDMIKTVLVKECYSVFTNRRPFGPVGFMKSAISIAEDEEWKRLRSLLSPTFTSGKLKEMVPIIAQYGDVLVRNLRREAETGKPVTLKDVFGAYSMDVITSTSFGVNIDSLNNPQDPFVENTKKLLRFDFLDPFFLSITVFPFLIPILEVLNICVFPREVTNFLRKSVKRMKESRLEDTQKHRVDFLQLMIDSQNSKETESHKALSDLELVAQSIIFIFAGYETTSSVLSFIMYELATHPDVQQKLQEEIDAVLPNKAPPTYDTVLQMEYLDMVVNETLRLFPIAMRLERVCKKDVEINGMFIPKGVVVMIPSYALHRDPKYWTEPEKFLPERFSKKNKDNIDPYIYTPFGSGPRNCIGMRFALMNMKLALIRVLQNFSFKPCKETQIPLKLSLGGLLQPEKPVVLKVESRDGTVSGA
Procedure: as §1, §2

[1] = Plasma protein binding, equilibrium dialysis, rat plasma; conditions: for fraction unbound at 5 h, 1 microM: 50% plasma; for % recovery: rat plasma dialysis
Procedure: (§3) An equilibrium dialysis (HTDialysis) method was used employing 50% plasma collected from CD-1 mice or Sprague-Dawley rats and incubated with K2EDTA. Test articles were assessed at 1 microM concentration in three replicates. Incubation time as 5 hours and plasma and buffer standards were assessed using LC/MS/MS. Percentage recovery was calculated as (Cbuffer+Cplasma)/[average]Cinitial, [average]Cinitial being measured in triplicate from the test samples prior to dialysis. Percentage of compound unbound was calculated as Cbuffer/Cplasma.

[2] = Plasma protein binding, equilibrium dialysis, mouse plasma; conditions: for fraction unbound at 5 h, 1 microM: 50% plasma
Procedure: as §3

[3] = tested on: integrin alpha-4-beta-7-expressing T lymphocytes; assay: In vivo T lymphocyte trafficking analyses in DSS-treated mice (single dose); parameters: species or system C57Bl/6 mice; conditions: 5-6 h
Procedure: In Vivo T Lymphocyte Trafficking Analyses
Animals. Female C57131/6 mice (Charles River, St-Constant, Qc), weighting 16-19 g at delivery were used for this study. Following arrival in the animal facility, all animals were subjected to a general health evaluation. An acclimation period of 7-14 days was allowed before the beginning of the study.
Administration of DSS. Dextran sulfate sodium (DSS) was administered to C57Bl/6 mice through addition to their drinking water at 2-3%. Mice accessed the DSS-treated water ad libitum over a 5-day period. Body weight and disease activity index (“DAI”) were measured on Day 5 in order to distribute DSS-treated animals in two uniform groups prior to dosing. Specific symptoms associated with colitis were scored based on the severity of each particular symptoms: 1—blood in stool (negative hemoccult, positive hemoccult, blood traces in stool visible, rectal bleeding); 2—stool consistency (normal, soft but still formed, very soft, diarrhea); 3—posture and fur (normal; ruffled fur; ruffled fur combined to slight hunched posture and slight dehydration; ruffled fur combined to hunched posture, dehydration and altered walking; moribund (euthanasia is mandatory before the animal reach this point). The overall DAI score was the sum of the three parameters (maximum score of 9). DAI assessment was performed on Day 5 only (prior to dosing). […]

[4] = not given; remark: listed apart in the source
[5] = in vivo
Procedure: In Vivo Pharmacokinetic Assessments in Rodents
Oral bioavailability of test compounds was conducted by assessing plasma exposure of following one or two oral doses in mice and, in some cases, comparing said plasma exposure with that following a single intravenous dose of the same compound.
Body weights were recorded on the day of dosing.
Dosing: The formulation containing the test compound were administered p.o. by gavage with disposable feeding needles.
Sample processing/storage: All blood samples were transferred into K2EDTA tubes on wet ice and centrifuged within 5 min (3200×g for 5 min at 4° C.) to obtain plasma. Samples were stored frozen at −80° C. until bioanalysis.
Instrumentation: AB Sciex API 4000 Q-TRAP MS/MS system equipped with an Agilent LC system with a binary pump, a solvent degasser, a thermostatted column compartment, a CTC autosampler and a divert valve installed between the column and mass spectrometer inlet.

Row | Structure (SMILES) | Control buffer/Buffer at 0.1 uM Cdonor/Creceiver [2] [%] | IC50 (CYP1A2) [µM] | IC50 (CYP2C9) [µM] | IC50 (CYP2D6) [µM] | IC50 (CYP3A4) [µM] | % unbound (Cbuffer/Cplasma) Mouse plasma 1 [%] | % unbound (Cbuffer/Cplasma) Mouse plasma 2 [%] | % unbound (Cbuffer/Cplasma) Mouse plasma 3 [%] | % unbound (Cbuffer/Cplasma) Mouse plasma Average [%] | % unbound (Cbuffer/Cplasma) Rat plasma 1 [4] [%] | % unbound (Cbuffer/Cplasma) Rat plasma 2 [4] [%] | % unbound (Cbuffer/Cplasma) Rat plasma 3 [4] [%] | % unbound (Cbuffer/Cplasma) Rat plasma Average [4] [%] | oral bioavailability / absorption (in words) ([5]; mouse, po) | % recovery [1] [%] | also measured
1 | CC(C)C[C@@H]1NC(=O)[C@H](Cc2c[nH]c3ccccc23)NC(=O)[C@@H]2CCCN2[C@H](C(=O)NC(C)(C)C)[C@H](C)NC(=O)[C@H]([C@@H](C)O)NC(=O)[C@H](CC(=O)O)NC1=O [ET00762] | 79 | – | – | – | – | – | – | – | – | – | – | – | – | – | – | IC50 (CYP1A2; human): > 15 µM; IC50 (CYP2C9; human): > 15 µM; IC50 (CYP2D6; human): > 15 µM; IC50 (CYP3A4; human): > 15 µM; recovery at 5 hours, 1 microM ([1]; Sprague-Dawley, rat): 94%; fraction unbound at 5 h, 1 microM ([1]; Sprague-Dawley, rat, % unbound (Cbuffer/Cplasma) Rat plasma 1, replicate 1, 1 microM, 5 h): 0.833; fraction unbound at 5 h, 1 microM ([1]; Sprague-Dawley, rat, % unbound (Cbuffer/Cplasma) Rat plasma 2, replicate 2, 1 microM, 5 h): 0.761; fraction unbound at 5 h, 1 microM ([1]; Sprague-Dawley, rat, % unbound (Cbuffer/Cplasma) Rat plasma 3, replicate 3, 1 microM, 5 h): 0.702; fraction unbound at 5 h, 1 microM ([1]; Sprague-Dawley, rat, % unbound (Cbuffer/Cplasma) Rat plasma Average, average of 3 replicates): 0.765; recovery at 5 hours, 1 microM ([2]; CD-1, mouse): 150%; fraction unbound at 5 h, 1 microM ([2]; CD-1, mouse, % unbound (Cbuffer/Cplasma) Mouse plasma 1, replicate 1, 1 microM, 5 h): 0.806; fraction unbound at 5 h, 1 microM ([2]; CD-1, mouse, % unbound (Cbuffer/Cplasma) Mouse plasma 2, replicate 2, 1 microM, 5 h): 0.744; fraction unbound at 5 h, 1 microM ([2]; CD-1, mouse, % unbound (Cbuffer/Cplasma) Mouse plasma 3, replicate 3, 1 microM, 5 h): 0.757; fraction unbound at 5 h, 1 microM ([2]; CD-1, mouse, % unbound (Cbuffer/Cplasma) Mouse plasma Average, average of 3 replicates): 0.769; recovery at 5 hours, 0.1 uM ([2]; buffer/buffer equilibrium dialysis control (HTDialysis)): 99%
2 | CC(C)C[C@@H]1NC(=O)[C@H](Cc2ccccc2)NC(=O)[C@@H]2CCCN2[C@H](C(=O)NC(C)(C)C)[C@H](C)NC(=O)[C@H]([C@@H](C)O)NC(=O)[C@H](CC(=O)O)NC1=O [ET01792] | 80 | > 15 | > 15 | > 15 | > 15 | 64.8 | 52.9 | 67.9 | 61.9 | 82.9 | 77.3 | 79.5 | 79.9 | high oral bioavailability | 97 | homing of T lymphocytes to the MLN ([3]; 100 mg/kg single oral dose): significant reduction of homing to the MLN; exposure (AUC0-tlast) ([5]; mouse, po, 40 mg/kg): 589 ng·h/mL; maximum plasma concentration after the first dose ([5]; mouse, po, 48 mg/kg): ~1,600 ng/ml; % recovery ([2]; mouse plasma dialysis): 130%
3 | CC(C)C[C@@H]1NC(=O)[C@H](Cc2ccc(-c3ccccc3)cc2)NC(=O)[C@@H]2CCCN2[C@H](C(=O)NC(C)(C)C)[C@H](C)NC(=O)[C@H]([C@@H](C)O)NC(=O)[C@H](CC(=O)O)NC1=O [ET01813] | 94 | > 15 | > 15 | > 15 | > 15 | 24.7 | 22.2 | 18.8 | 21.9 | 15.8 | 20.1 | 21.7 | 19.2 | – | 89 | CLs ([5]; male, CD-1, mouse, iv, 5 mg/kg): 114.8 mL/min/kg; calculated oral bioavailability ([5]; mouse): ~1%; terminal half-life ([5]; mouse): ~2 h; tmax ([5]; mouse, po, 40 mg/kg): 5 min
4 | CC(C)C[C@@H]1NC(=O)CN(C)C(=O)[C@H](Cc2ccc(O)cc2)NC(=O)[C@@H]2CCCN2[C@H](C(=O)NC(C)(C)C)[C@H](C)NC(=O)[C@H]([C@@H](C)O)NC(=O)[C@H](CC(=O)O)NC1=O [ET2154] | – | – | – | – | – | – | – | – | – | – | – | – | – | low oral bioavailability | – | homing of T lymphocytes to the MLN ([3]; 200 mg/kg single oral dose): significant and robust attenuation of homing to the MLN

Source: patent US11072616B2, “Cyclic peptides targeting alpha-4-beta-7 integrin” (Zealand Pharma A/S, priority 2015, dated 2021)
